Results from the CheMixHub viscosity set.

Experiment: xn = mol fraction of the nth substance listed

BrCCBr + c1ccccc1
101.33 kPa
Settings	viscosity [mPa·s]
298.15 K, x1 = 0.0999	0.6395
298.15 K, x1 = 0.2016	0.6889
298.15 K, x1 = 0.312	0.8229
298.15 K, x1 = 0.4109	0.8428
298.15 K, x1 = 0.5099	0.8941
298.15 K, x1 = 0.6073	1.034
298.15 K, x1 = 0.7101	1.116
298.15 K, x1 = 0.8038	1.253
298.15 K, x1 = 0.9005	1.422
308.15 K, x1 = 0.1052	0.5588
308.15 K, x1 = 0.2078	0.6034
308.15 K, x1 = 0.3146	0.6379
308.15 K, x1 = 0.4086	0.7026
308.15 K, x1 = 0.5068	0.7767
308.15 K, x1 = 0.6088	0.8569
308.15 K, x1 = 0.7019	0.961
308.15 K, x1 = 0.8028	1.128
308.15 K, x1 = 0.9019	1.219

Brc1ccccc1 + ClC(Cl)=C(Cl)Cl
303.15 K, 101 kPa
Settings	viscosity [mPa·s]
x2 = 0.1026	0.978
x2 = 0.1749	0.971
x2 = 0.2799	0.96
x2 = 0.3996	0.945
x2 = 0.4574	0.933
x2 = 0.5408	0.916
x2 = 0.6276	0.894
x2 = 0.7273	0.871
x2 = 0.8585	0.84
x2 = 0.9426	0.822

Brc1ccccc1 + Cc1ccc(C)cc1
101 kPa
Settings	viscosity [mPa·s]
293.15 K, x1 = 0.1123	0.645
293.15 K, x1 = 0.225	0.695
293.15 K, x1 = 0.3321	0.746
293.15 K, x1 = 0.4327	0.795
293.15 K, x1 = 0.5301	0.845
293.15 K, x1 = 0.6412	0.897
293.15 K, x1 = 0.7553	0.95
293.15 K, x1 = 0.9107	1.018
298.15 K, x1 = 0.1121	0.61
298.15 K, x1 = 0.2263	0.658
298.15 K, x1 = 0.3316	0.701
298.15 K, x1 = 0.4646	0.758
298.15 K, x1 = 0.5298	0.785
298.15 K, x1 = 0.6418	0.835
298.15 K, x1 = 0.755	0.895
298.15 K, x1 = 0.9101	0.955
303.15 K, x1 = 0.1154	0.575
303.15 K, x1 = 0.22	0.615
303.15 K, x1 = 0.3355	0.657
303.15 K, x1 = 0.4366	0.7
303.15 K, x1 = 0.5593	0.75
303.15 K, x1 = 0.6816	0.799
303.15 K, x1 = 0.7723	0.835
303.15 K, x1 = 0.9149	0.891

CC(F)(F)Cl + FC(F)Cl
Settings	viscosity [mPa·s]
293.15 K, 101 kPa, x2 = 0.115	0.2343
293.15 K, 101 kPa, x2 = 0.331	0.2197
293.15 K, 101 kPa, x2 = 0.54	0.2009
293.15 K, 101 kPa, x2 = 0.635	0.2028
293.15 K, 101 kPa, x2 = 0.913	0.177
293.25 K, 101 kPa, x2 = 0.438	0.2153
293.35 K, 101 kPa, x2 = 0.822	0.189
293.73 K, 101.13 kPa, x2 = 0.526	0.195
312.35 K, 101 kPa, x2 = 0.731	0.1511
312.55 K, 101 kPa, x2 = 0.115	0.1951
312.75 K, 101 kPa, x2 = 0.913	0.1394
312.85 K, 101 kPa, x2 = 0.635	0.1609
312.95 K, 101 kPa, x2 = 0.331	0.1754
312.95 K, 101 kPa, x2 = 0.54	0.1615
313.15 K, 101 kPa, x2 = 0.822	0.1495
313.25 K, 101 kPa, x2 = 0.438	0.1749

O=C1CCCO1 + CC#N
Settings	viscosity [mPa·s]
293.15 K, 101 kPa, x2 = 0.1054	1.604
293.15 K, 101 kPa, x2 = 0.1934	1.392
293.15 K, 101 kPa, x2 = 0.3007	1.172
293.15 K, 101 kPa, x2 = 0.4029	0.998
293.15 K, 101 kPa, x2 = 0.5036	0.849
293.15 K, 101 kPa, x2 = 0.6012	0.732
293.15 K, 101 kPa, x2 = 0.702	0.608
293.15 K, 101 kPa, x2 = 0.8008	0.518
293.15 K, 101 kPa, x2 = 0.8993	0.433
298.15 K, 101 kPa, x2 = 0.1054	1.484
298.15 K, 101 kPa, x2 = 0.1934	1.292
298.15 K, 101 kPa, x2 = 0.3007	1.092
298.15 K, 101 kPa, x2 = 0.4029	0.934
298.15 K, 101 kPa, x2 = 0.5036	0.8
298.15 K, 101 kPa, x2 = 0.6012	0.691
298.15 K, 101 kPa, x2 = 0.702	0.576
298.15 K, 101 kPa, x2 = 0.8008	0.495
298.15 K, 101 kPa, x2 = 0.8993	0.414
298.15 K, 101.33 kPa, x2 = 0.0503	1.591
298.15 K, 101.33 kPa, x2 = 0.0938	1.471
298.15 K, 101.33 kPa, x2 = 0.1387	1.375
298.15 K, 101.33 kPa, x2 = 0.2001	1.253
298.15 K, 101.33 kPa, x2 = 0.249	1.164
298.15 K, 101.33 kPa, x2 = 0.3005	1.074
298.15 K, 101.33 kPa, x2 = 0.3969	0.925
298.15 K, 101.33 kPa, x2 = 0.4459	0.86
298.15 K, 101.33 kPa, x2 = 0.4998	0.79
298.15 K, 101.33 kPa, x2 = 0.5515	0.728
298.15 K, 101.33 kPa, x2 = 0.5979	0.676
298.15 K, 101.33 kPa, x2 = 0.7014	0.571
298.15 K, 101.33 kPa, x2 = 0.7522	0.525
298.15 K, 101.33 kPa, x2 = 0.8006	0.485
298.15 K, 101.33 kPa, x2 = 0.8359	0.456
298.15 K, 101.33 kPa, x2 = 0.8994	0.409
298.15 K, 101.33 kPa, x2 = 0.9532	0.365
303.15 K, 101 kPa, x2 = 0.1054	1.378
303.15 K, 101 kPa, x2 = 0.1934	1.204
303.15 K, 101 kPa, x2 = 0.3007	1.021
303.15 K, 101 kPa, x2 = 0.4029	0.877
303.15 K, 101 kPa, x2 = 0.5036	0.756
303.15 K, 101 kPa, x2 = 0.6012	0.655
303.15 K, 101 kPa, x2 = 0.702	0.547
303.15 K, 101 kPa, x2 = 0.8008	0.473
303.15 K, 101 kPa, x2 = 0.8993	0.395
308.15 K, 101 kPa, x2 = 0.1054	1.284
308.15 K, 101 kPa, x2 = 0.1934	1.126
308.15 K, 101 kPa, x2 = 0.3007	0.958
308.15 K, 101 kPa, x2 = 0.4029	0.827
308.15 K, 101 kPa, x2 = 0.5036	0.716
308.15 K, 101 kPa, x2 = 0.6012	0.621
308.15 K, 101 kPa, x2 = 0.702	0.52
308.15 K, 101 kPa, x2 = 0.8008	0.452
308.15 K, 101 kPa, x2 = 0.8993	0.378
313.15 K, 101 kPa, x2 = 0.1054	1.201
313.15 K, 101 kPa, x2 = 0.1934	1.055
313.15 K, 101 kPa, x2 = 0.3007	0.902
313.15 K, 101 kPa, x2 = 0.4029	0.781
313.15 K, 101 kPa, x2 = 0.5036	0.68
313.15 K, 101 kPa, x2 = 0.6012	0.591
313.15 K, 101 kPa, x2 = 0.702	0.496
313.15 K, 101 kPa, x2 = 0.8008	0.431
313.15 K, 101 kPa, x2 = 0.8993	0.363
318.15 K, 101 kPa, x2 = 0.1054	1.125
318.15 K, 101 kPa, x2 = 0.1934	0.991
318.15 K, 101 kPa, x2 = 0.3007	0.85
318.15 K, 101 kPa, x2 = 0.4029	0.74
318.15 K, 101 kPa, x2 = 0.5036	0.647
318.15 K, 101 kPa, x2 = 0.6012	0.563
318.15 K, 101 kPa, x2 = 0.702	0.473
318.15 K, 101 kPa, x2 = 0.8008	0.413
318.15 K, 101 kPa, x2 = 0.8993	0.344
323.15 K, 101 kPa, x2 = 0.1054	1.058
323.15 K, 101 kPa, x2 = 0.1934	0.934
323.15 K, 101 kPa, x2 = 0.3007	0.803
323.15 K, 101 kPa, x2 = 0.4029	0.702
323.15 K, 101 kPa, x2 = 0.5036	0.617
323.15 K, 101 kPa, x2 = 0.6012	0.538
323.15 K, 101 kPa, x2 = 0.702	0.452
323.15 K, 101 kPa, x2 = 0.8008	0.396
323.15 K, 101 kPa, x2 = 0.8993	0.33

COc1ccccc1O + Cc1ccccc1
303.15 K, 101 kPa
Settings	viscosity [mPa·s]
x2 = 0.1	3.17
x2 = 0.2	2.47
x2 = 0.3	1.83
x2 = 0.4	1.5
x2 = 0.5	1.2
x2 = 0.6	0.981
x2 = 0.7	0.815
x2 = 0.8	0.7
x2 = 0.9	0.599

Brc1ccccc1 + c1ccccc1
101 kPa
Settings	viscosity [mPa·s]
298.15 K, x1 = 0.0867	0.636
298.15 K, x1 = 0.116	0.649
298.15 K, x1 = 0.8	0.96
303.15 K, x1 = 0.086	0.61
303.15 K, x1 = 0.176	0.653
303.15 K, x1 = 0.268	0.7
303.15 K, x1 = 0.362	0.742
303.15 K, x1 = 0.46	0.785
303.15 K, x1 = 0.561	0.827
303.15 K, x1 = 0.665	0.867
303.15 K, x1 = 0.774	0.909
303.15 K, x1 = 0.884	0.951
308.15 K, x1 = 0.0867	0.558
308.15 K, x1 = 0.116	0.568
318.15 K, x1 = 0.0867	0.492
318.15 K, x1 = 0.116	0.504
323.15 K, x1 = 0.0867	0.461
323.15 K, x1 = 0.116	0.47
323.15 K, x1 = 0.8	0.711

Ic1ccccc1 + CCCCCO
293.15 K, 101.33 kPa
Settings	viscosity [mPa·s]
x2 = 0.1	1.665
x2 = 0.2	1.694
x2 = 0.25	1.709
x2 = 0.3834	1.864
x2 = 0.4289	1.94
x2 = 0.5101	2.098
x2 = 0.7761	2.915
x2 = 0.8055	3.043
x2 = 0.8184	3.1
x2 = 0.8554	3.273
x2 = 0.9419	3.7
x2 = 0.975	3.867

N#C[S-].[NH4+] + CC(=O)[O-].CC[n+]1ccn(C)c1
viscosity [mPa·s], 101 kPa
Settings	x1 = 0.02	x1 = 0.1002	x1 = 0.1998	x1 = 0.2514	x1 = 0.3001	x1 = 0.3199	x1 = 0.3413
298.15 K	136.6	160.2	190.7	198.6	194.6	195.4	196.4
303.15 K	100.9	117.6	139.3	144.4	141.9	142.8	143.6
308.15 K	76.44	88.53	104	107.4	105.9	106.6	107.3
313.15 K	59.28	68.07	79.27	81.46	80.5	81.14	81.73
318.15 K	46.92	53.32	61.47	62.88	62.26	62.81	63.32
323.15 K	37.79	42.45	48.4	49.28	48.89	49.35	49.79
